From US8940909B2, “Indicator platform” (Biosynth AG, priority 2009, dated 2015)

Tests used:
[1] = tested on: beta-galactosidase positive Eschericha coli (NM1); test: IO staining of bacterial colonies on Nutrient Agar (color, fluorescence, localization, growth); on C: Color of colonies (strength): key: −: absent; +/−: weak; +: strong; ++: very strong; on F: Fluorescence of colonies (strength): key: −: absent; +/−: weak; +: strong; ++: very strong; on G: Growth of colonies: key: −: absent; +/−: weak; +: strong; ++: very strong; on L: Localization of stain on colonies: key: −: absent; +/−: weak; +: strong; ++: very strong; format: cell-based, E. coli; conditions: 150 mg/l substrate and 100 mg/l IPTG; for C: Color of colonies (colour of stain) / C: Color of colonies (strength): 24 h on Nutrient Agar; for G: Growth of colonies / L: Localization of stain on colonies / F: Fluorescence of colonies (strength) / C: Color of colonies (strength): E. coli; for G: Growth of colonies / L: Localization of stain on colonies / F: Fluorescence of colonies (strength) / F: Fluorescence of colonies (colour): 24 h; for F: Fluorescence of colonies (strength) / F: Fluorescence of colonies (colour): 366 nm UV
Method: (§1) Nutrient Agar (5 g/l peptone, 5 g/l NaCl, 2 g/l yeast extract, 1 g/l beef extract, 13 g/l agar, pH 7.4) was autoclaved and allowed to cool to 50° C. Then indicators were added to final concentrations of 150 mg/l (from a 20 mg/ml stock solution in DMF).
(§2) Optionally IPTG was added to 100 mg/l (from a 100 mg/ml stock solution in H2O) and plates were poured. Agar plates were inoculated with cultures of beta-galactosidase positive Eschericha coli (NM1) or beta-galactosidase negative Salmonella enteritidis (RKI 05/07992) (pre-grown on nutrient broth for 8-18 hours) and incubated at 37° C. Plates were inspected at 16, 20, 24 and 48 hours and pictures were recorded at 18, 24, and 48 hours with a Digistore 2 Image documentation system (CAMAG) under white light.
(§3) A considerable number of indicators molecules (Table IVa, IVb) and a selection of labile groups (Table IVc) were tested with various microbial species producing different biomarker enzymes (external stimuli, eS). The color of stains ranges from yellow to red.
(§4) Plating media from Example 10 were examined under 366 nm UV irradiation at 16, 20, 24 and 48 hours for fluorescence by means of Digistore 2 Image documentation system (CAMAG). Loops of bacterial cells, grown for 48 hours on Nutrient Agar plates containing 150 mg/l beta-D-galactosidase indicator and 100 mg/l IPTG, were directly streaked into wells of black clear bottom microtiter plates. Fluorescence scans were recorded on a Spectramax M5 (Molecular Devices).

[2] = tested on: beta-galactosidase negative Salmonella enteritidis (RKI 05/07992); format: cell-based; conditions: S. enteritidis (b-gal negative), 24 h, 150 mg/l substrate and 100 mg/l IPTG; for F: Fluorescence of colonies (strength): 366 nm UV; on all read-outs here: key: −: absent; +/−: weak; +: strong; ++: very strong
Method: as §1, §2, §3, §4

[3] = tested on: bacteria producing various biomarker enzymes; test: IO staining of colonies of bacteria producing various biomarker enzymes (Table IVc); format: cell-based; conditions: for C: Color of colonies / F: Fluorescence of colonies / G: Growth of colonies: 24 h on Nutrient Agar; for F: Fluorescence of colonies (hue): hue of fluorescence of stained colonies, 24 h on agar containing the indicator (Table IVc)
[4] = Enterobacter aerogenes strain 242, a-glucosidase −, 150 mg/l alpha-D-Glucosidase Indicator
[5] = Enterobacter cloacae strain 245, a-glucosidase −, 150 mg/l alpha-D-Glucosidase Indicator
[6] = Enterobacter sakazakii strain 141, a-glucosidase +, 150 mg/l alpha-D-Glucosidase Indicator
[7] = Enterobacter sakazakii strain 142, a-glucosidase +, 150 mg/l alpha-D-Glucosidase Indicator
[8] = Escherichia coli strain 270, a-glucosidase −, 150 mg/l alpha-D-Glucosidase Indicator
[9] = Shigella sonnei strain 133, a-glucosidase −, 150 mg/l alpha-D-Glucosidase Indicator
[10] = Escherichia coli strain 61, glucuronidase +, 0.45 mM beta-D-Glucuronidase Indicator
[11] = Escherichia coli strain 62, glucuronidase +, 0.45 mM beta-D-Glucuronidase Indicator
[12] = Escherichia coli strain 270, glucuronidase +, 0.45 mM beta-D-Glucuronidase Indicator
[13] = Klebsiella pneumoniae strain 164, glucuronidase −, 0.45 mM beta-D-Glucuronidase Indicator

Row | Structure (SMILES) | C: Color of colonies (colour of stain) [1] | G: Growth of colonies [1] | L: Localization of stain on colonies [1] | F: Fluorescence of colonies (strength) [1] | C: Color of colonies (strength) [1] | C: Color of colonies (strength) [2] | F: Fluorescence of colonies (strength) [2] | F: Fluorescence of colonies (colour) [1] | also measured
1 | O=Cc1ccccc1-n1cc(O[C@@H]2O[C@H](CO)[C@H](O)[C@H](O)[C@H]2O)c2ccccc21 [Indicator I13a, 1-(2-Formylphenyl)-1H-indol-3-yl-beta-D-galactopyranoside] | cream-orange | + | + | − | +/− | − | − |  | 
2 | CC(=O)c1ccccc1-n1cc(O[C@@H]2O[C@H](CO)[C@H](O)[C@H](O)[C@H]2O)c2ccccc21 [Indicator I14a, 1-(2-Acetylphenyl)-1H-indol-3-yl-beta-D-galactopyranoside] | light yellow | + | + | − | + | − | − |  | 
3 | CC(=O)c1ccccc1-n1cc(O[C@@H]2O[C@H](CO)[C@H](O)[C@H](O)[C@H]2O)c2c(Cl)c(Br)ccc21 [Indicator I17a, 1-(2-Acetylphenyl)-5-bromo-4-chloro-1H-indol-3-yl-beta-D-galactopyranoside] | yellow-orange | + | + | − | + | − | − |  | 
4 | COc1ccc(C(C)=O)c(-n2cc(O[C@@H]3O[C@H](CO)[C@H](O)[C@H](O)[C@H]3O)c3ccc(Cl)cc32)c1 [Indicator I18a, 1-(2-Acetyl-5-methoxyphenyl)-6-chloro-1H-indol-3-yl-beta-D-galactopyranoside] | light yellow | + | +/− | +/− | + | − | − | green | 
5 | O=C(c1ccccc1)c1ccccc1-n1cc(O[C@@H]2O[C@H](CO)[C@H](O)[C@H](O)[C@H]2O)c2ccccc21 [Indicator I19a, 1-(2-Benzoylphenyl)-1H-indol-3-yl-beta-D-galactopyranoside] | yellow-orange | + | + | + | + | − | − | yellow | 
6 | O=C(c1ccccc1)c1ccccc1-n1cc(O[C@@H]2O[C@H](CO)[C@H](O)[C@H](O)[C@H]2O)c2c(Cl)cccc21 [Indicator I20a, 1-(2-Benzoylphenyl)-4-chloro-1H-indol-3-yl-beta-D-galactopyranoside] | orange | + | cryst. | +/− | +/− | − | − | orange | 
7 | O=C(c1ccccc1)c1ccccc1-n1cc(O[C@H]2O[C@H](CO)[C@@H](O)[C@H](O)[C@H]2O)c2ccc(Cl)cc21 [Indicator I21e, 1-(2-Benzoylphenyl)-6-chloro-1H-indol-3-yl-alpha-D-glucopyranoside] |  |  |  |  |  |  |  |  | C: Color of colonies [3, 4]: −; F: Fluorescence of colonies [3, 4]: −; G: Growth of colonies [3, 4]: +; C: Color of colonies [3, 5]: −; F: Fluorescence of colonies [3, 5]: −; G: Growth of colonies [3, 5]: +; C: Color of colonies [3, 6]: +; F: Fluorescence of colonies [3, 6]: +/−; G: Growth of colonies [3, 6]: +; C: Color of colonies [3, 7]: +; F: Fluorescence of colonies [3, 7]: +/−; G: Growth of colonies [3, 7]: +; C: Color of colonies [3, 8]: −; F: Fluorescence of colonies [3, 8]: −; G: Growth of colonies [3, 8]: +; C: Color of colonies [3, 9]: −; F: Fluorescence of colonies [3, 9]: −; G: Growth of colonies [3, 9]: +; F: Fluorescence of colonies (hue) [3]: y-g
8 | O=C(c1ccccc1)c1ccccc1-n1cc(O[C@@H]2O[C@H](C(=O)[O-])[C@@H](O)[C@H](O)[C@H]2O)c2ccc(Cl)cc21.[Na+] [Indicator I21f, 1-(2-Benzoylphenyl)-6-chloro-1H-indol-3-yl-beta-D-glucuronide sodium salt] |  |  |  |  |  |  |  |  | C: Color of colonies [3, 10]: +; F: Fluorescence of colonies [3, 10]: +/−; G: Growth of colonies [3, 10]: +; C: Color of colonies [3, 11]: +; F: Fluorescence of colonies [3, 11]: +/−; G: Growth of colonies [3, 11]: +; C: Color of colonies [3, 12]: +; F: Fluorescence of colonies [3, 12]: +/−; G: Growth of colonies [3, 12]: +; C: Color of colonies [3, 13]: −; F: Fluorescence of colonies [3, 13]: −; G: Growth of colonies [3, 13]: +; F: Fluorescence of colonies (hue) [3]: y-o
9 | O=C(c1ccccc1)c1ccc(Cl)cc1-n1cc(O[C@@H]2O[C@H](CO)[C@H](O)[C@H](O)[C@H]2O)c2ccc(Cl)cc21 [Indicator I23a, 1-(2-Benzoyl-5-chlorophenyl)-6-chloro-1H-indol-3-yl-beta-D-galactopyranoside] | yellow | + | + | + | + |  |  | green-yellow | 
10 | COc1ccc(C(=O)c2ccccc2)c(-n2cc(O[C@@H]3O[C@H](CO)[C@H](O)[C@H](O)[C@H]3O)c3ccc(Cl)cc32)c1 [Indicator I24a, 1-(2-Benzoyl-5-methoxyphenyl)-6-chloro-1H-indol-3-yl-beta-D-galactopyranoside] | dark yellow | + | +/− | + | + | − | − | yellow-green | 
11 | COc1ccc(C(=O)c2ccccc2-n2cc(O[C@@H]3O[C@H](CO)[C@H](O)[C@H](O)[C@H]3O)c3c(Cl)cccc32)c(OC)c1 [Indicator I26a, 4-Chloro-1-[2-(2,4-dimethoxybenzoyl)phenyl]-1H-indol-3-yl-beta-D-galactopyranoside] | yellow-orange | + | + | +/− | + | − | − | orange | 
12 | O=C(O)c1ccc(C(=O)c2ccccc2-n2cc(O[C@@H]3O[C@H](CO)[C@H](O)[C@H](O)[C@H]3O)c3ccc(Cl)cc32)o1 [Indicator I29a, 1-[2-(5-Carboxylfuranoyl)phenyl]-6-chloro-1H-indol-3-yl-beta-D-galactopyranoside] | red | + | − | − | + | − | − |  | 
13 | O=C(c1ccco1)c1ccccc1-n1cc(O[C@@H]2O[C@H](CO)[C@H](O)[C@H](O)[C@H]2O)c2ccc(Cl)cc21 [Indicator I30a, 6-Chloro-1-(2-furanoylphenyl)-1H-indol-3-yl-beta-D-galactopyranoside] | dark orange | + | +/− | +/− | ++ | − | − | orange-red | 
